Reference: patent US4720543A, “1a-7-substituted derivatives of mitomycin and uses thereof” (priority 1985, dated 1988)
Several values for one entry are separate records, joined by “and”; a condition that tells them apart may be missing. Identical values can stand only once.

Tests used:
B16 melanoma = assay: murine B16 melanoma antitumor activity
Source text: Activity against the murine B16 melanoma is currently being determined.

[1] = toxic single doses in normal CD2F1 mice; details: for Deaths due to drug toxicity: up to 45 days
Protocol: Drug was administered intraperitoneally (i.p.) in a volume of 0.1 ml per 10 grams body weight.

Klebsiella Pneumonia = assay: antibiotic activity, bacterial growth inhibition in culture; format: cell-based
Protocol: (§1) Bacteria were grown in a standard growth culture at pH 7.2. After the cultures were incubated at 37° C. overnight and diluted into fresh medium, controls and the test antibiotics dissolved in 0.3% hydroxy propylcellulose (HPC) were added at various concentrations and then reincubated overnight. The measure of antibiotic activity was determined by the amount of bacterial growth inhibition as shown by measurement of the optical density at 660 nm.

WP2s (E. coli) = assay: as above; format: cell-based
Protocol: as §1

Listeria Sp. = assay: as above; format: cell-based
Protocol: as §1

TA100 (Salmonella Sp.) = assay: as above; format: cell-based
Protocol: as §1

Staphylococcus Sp. = assay: as above; format: cell-based
Protocol: as §1

In the case of `CO[C@@]12[C@H](COC(N)=O)C3=C(C(=O)C(C)=C(N)C3=O)N1C[C@H]1[C@@H]2N1C(=S)N[C@@H]1O[C@H](COC(C)=O)[C@@H](OC(C)=O)[C@H](OC(C)=O)[C@H]1NC(C)=O` [M-TAG, 1a(N-2-acetamido-3,4,6-tri-O-acetyl-2-deoxy-D-glucopyranosylthiocarbamoyl)-mitomycin C], the “mice alive on day 20” value (B16 melanoma; M-TAG 250 mg/kg or mitomycin C 4 mg/kg, i.p. day 1) is reported as 6 out of 10, the “mice alive on day 10” value (B16 melanoma; M-TAG 250 mg/kg or mitomycin C 4 mg/kg, i.p. day 1, all vehicle-control mice died) is reported as “All” and the “antitumor activity against murine B16 melanoma (in words)” value (B16 melanoma; mouse, in vivo) is reported as “significant antitumor activity”. For the same molecule, the “Deaths due to drug toxicity” value ([1]; 250 mg/kg, single i.p. dose) was 0/10, the “Deaths due to drug toxicity” value ([1]; 275 mg/kg, single i.p. dose) was 1/10 and the “Deaths due to drug toxicity” value ([1]; 300 mg/kg, single i.p. dose) was 3/10. For the same molecule, the “difference in LD10 dose in mice relative to mitomycin C” value ([1]; molar basis) was 30-40 fold, the “approximate LD10 dose (molar)” value ([1]; single i.p. dose) was about 346 µmol/kg and the LD10 dose ([1]; single i.p. dose toxic to 10% of normal mice) was 275 mg/kg and 250 to 275 mg/kg and ~250 mg/kg. The “optical density at 660 nm (figure in parentheses)” value (from here on “optical density at 660 nm”) (Klebsiella Pneumonia; 0.04 mcg/ml) was 0.66, the “optical density at 660 nm” value (Klebsiella Pneumonia; 0.4 mcg/ml) was 0.62 and the “optical density at 660 nm” value (Klebsiella Pneumonia; 4.0 mcg/ml) was 0.59. The “optical density at 660 nm” value (Klebsiella Pneumonia; 40 mcg/ml) was 0.40, the “optical density at 660 nm” value (Klebsiella Pneumonia; 400 mcg/ml) was 0.04 and the inhibition at 0.04 µg/mL (Klebsiella Pneumonia; Klebsiella pneumoniae, 0.04 mcg/ml, 37° C. overnight, read-out: amount of bacterial growth inhibition (first figure)) was 22%. It also gave an inhibition at 0.4 µg/mL (Klebsiella Pneumonia; Klebsiella pneumoniae, 0.4 mcg/ml, 37° C. overnight, read-out: amount of bacterial growth inhibition (first figure)) of 24%, an inhibition at 4 µg/mL (Klebsiella Pneumonia; Klebsiella pneumoniae, 4.0 mcg/ml, 37° C. overnight, read-out: amount of bacterial growth inhibition (first figure)) of 26% and an inhibition at 40 µg/mL (Klebsiella Pneumonia; Klebsiella pneumoniae, 40 mcg/ml, 37° C. overnight, read-out: amount of bacterial growth inhibition (first figure)) of 40%. For the same molecule, the inhibition at 400 µg/mL (Klebsiella Pneumonia; Klebsiella pneumoniae, 400 mcg/ml, 37° C. overnight, read-out: amount of bacterial growth inhibition (first figure)) was 92%, the “optical density at 660 nm” value (WP2s (E. coli); 0.04 mcg/ml) was 0.41 and the “optical density at 660 nm” value (WP2s (E. coli); 0.4 mcg/ml) was 0.29. The “optical density at 660 nm” value (WP2s (E. coli); 4.0 mcg/ml) was 0.30, the “optical density at 660 nm” value (WP2s (E. coli); 40 mcg/ml) was 0.12 and the “optical density at 660 nm” value (WP2s (E. coli); 400 mcg/ml) was 0.009. The inhibition at 0.04 µg/mL (WP2s (E. coli); Escherichia coli, 0.04 mcg/ml, 37° C. overnight, read-out: amount of bacterial growth inhibition (first figure)) was 39%, the inhibition at 0.4 µg/mL (WP2s (E. coli); Escherichia coli, 0.4 mcg/ml, 37° C. overnight, read-out: amount of bacterial growth inhibition (first figure)) was 51% and the inhibition at 4 µg/mL (WP2s (E. coli); Escherichia coli, 4.0 mcg/ml, 37° C. overnight, read-out: amount of bacterial growth inhibition (first figure)) was 50%. For the same molecule, the inhibition at 40 µg/mL (WP2s (E. coli); Escherichia coli, 40 mcg/ml, 37° C. overnight, read-out: amount of bacterial growth inhibition (first figure)) was 76%, the inhibition at 400 µg/mL (WP2s (E. coli); Escherichia coli, 400 mcg/ml, 37° C. overnight, read-out: amount of bacterial growth inhibition (first figure)) was 98% and the “optical density at 660 nm” value (Listeria Sp.; 0.04 mcg/ml) was 0.59. For the same molecule, the “optical density at 660 nm” value (Listeria Sp.; 0.4 mcg/ml) was 0.59, the “optical density at 660 nm” value (Listeria Sp.; 4.0 mcg/ml) was 0.59 and the “optical density at 660 nm” value (Listeria Sp.; 40 mcg/ml) was 0.036. The “optical density at 660 nm” value (Listeria Sp.; 400 mcg/ml) was 0.00, the inhibition at 0.04 µg/mL (Listeria Sp.; Listeria, 0.04 mcg/ml, 37° C. overnight, read-out: amount of bacterial growth inhibition (first figure)) was 26% and the inhibition at 0.4 µg/mL (Listeria Sp.; Listeria, 0.4 mcg/ml, 37° C. overnight, read-out: amount of bacterial growth inhibition (first figure)) was 26%. It also gave an inhibition at 4 µg/mL (Listeria Sp.; Listeria, 4.0 mcg/ml, 37° C. overnight, read-out: amount of bacterial growth inhibition (first figure)) of 26%, an inhibition at 40 µg/mL (Listeria Sp.; Listeria, 40 mcg/ml, 37° C. overnight, read-out: amount of bacterial growth inhibition (first figure)) of 92% and an inhibition at 400 µg/mL (Listeria Sp.; Listeria, 400 mcg/ml, 37° C. overnight, read-out: amount of bacterial growth inhibition (first figure)) of 100%. The “optical density at 660 nm” value (TA100 (Salmonella Sp.); 0.04 mcg/ml) was 0.34, the “optical density at 660 nm” value (TA100 (Salmonella Sp.); 0.4 mcg/ml) was 0.11 and the “optical density at 660 nm” value (TA100 (Salmonella Sp.); 4.0 mcg/ml) was 0.97. The “optical density at 660 nm” value (TA100 (Salmonella Sp.); 40 mcg/ml) was 0.97, the “optical density at 660 nm” value (TA100 (Salmonella Sp.); 400 mcg/ml) was 0.02 and the inhibition at 0.04 µg/mL (TA100 (Salmonella Sp.); Salmonella, 0.04 mcg/ml, 37° C. overnight, read-out: amount of bacterial growth inhibition (first figure)) was 46%. The inhibition at 0.4 µg/mL (TA100 (Salmonella Sp.); Salmonella, 0.4 mcg/ml, 37° C. overnight, read-out: amount of bacterial growth inhibition (first figure)) was 78%, the inhibition at 4 µg/mL (TA100 (Salmonella Sp.); Salmonella, 4.0 mcg/ml, 37° C. overnight, read-out: amount of bacterial growth inhibition (first figure)) was 80% and the inhibition at 40 µg/mL (TA100 (Salmonella Sp.); Salmonella, 40 mcg/ml, 37° C. overnight, read-out: amount of bacterial growth inhibition (first figure)) was 80%. For the same molecule, the inhibition at 400 µg/mL (TA100 (Salmonella Sp.); Salmonella, 400 mcg/ml, 37° C. overnight, read-out: amount of bacterial growth inhibition (first figure)) was 95%, the “optical density at 660 nm” value (Staphylococcus Sp.; 0.04 mcg/ml) was 0.52 and the “optical density at 660 nm” value (Staphylococcus Sp.; 0.4 mcg/ml) was 0.02.
